Tests used:
TRPV1 ion channel = TRPV1 ion channel (UniProt O35433); test: patch clamp current recordings from HEK cells stably expressing TRPV1; type: cell-based; conditions: for reversibility of current response by washout: FIG. 3
Method: Y axis is current amplitude and X-axis is time indicated by a 2 min bar.

TRPV1 receptor = TRPV1 receptor (Homo sapiens, UniProt Q8NER1); conditions: cited from earlier work
[1] = intraperitoneally in rats, over a period of 9 months; cited from earlier work
[2] = system: TRPV1 expressing nerve terminals; conditions: intrathecal administration, STZ-induced diabetes; cited from earlier work
[3] = system: TRPV1 positive peripheral terminals; conditions: local intra-dermal administration, rodents; cited from earlier work

TRPV1 receptor, sequence (Q8NER1 whole entry): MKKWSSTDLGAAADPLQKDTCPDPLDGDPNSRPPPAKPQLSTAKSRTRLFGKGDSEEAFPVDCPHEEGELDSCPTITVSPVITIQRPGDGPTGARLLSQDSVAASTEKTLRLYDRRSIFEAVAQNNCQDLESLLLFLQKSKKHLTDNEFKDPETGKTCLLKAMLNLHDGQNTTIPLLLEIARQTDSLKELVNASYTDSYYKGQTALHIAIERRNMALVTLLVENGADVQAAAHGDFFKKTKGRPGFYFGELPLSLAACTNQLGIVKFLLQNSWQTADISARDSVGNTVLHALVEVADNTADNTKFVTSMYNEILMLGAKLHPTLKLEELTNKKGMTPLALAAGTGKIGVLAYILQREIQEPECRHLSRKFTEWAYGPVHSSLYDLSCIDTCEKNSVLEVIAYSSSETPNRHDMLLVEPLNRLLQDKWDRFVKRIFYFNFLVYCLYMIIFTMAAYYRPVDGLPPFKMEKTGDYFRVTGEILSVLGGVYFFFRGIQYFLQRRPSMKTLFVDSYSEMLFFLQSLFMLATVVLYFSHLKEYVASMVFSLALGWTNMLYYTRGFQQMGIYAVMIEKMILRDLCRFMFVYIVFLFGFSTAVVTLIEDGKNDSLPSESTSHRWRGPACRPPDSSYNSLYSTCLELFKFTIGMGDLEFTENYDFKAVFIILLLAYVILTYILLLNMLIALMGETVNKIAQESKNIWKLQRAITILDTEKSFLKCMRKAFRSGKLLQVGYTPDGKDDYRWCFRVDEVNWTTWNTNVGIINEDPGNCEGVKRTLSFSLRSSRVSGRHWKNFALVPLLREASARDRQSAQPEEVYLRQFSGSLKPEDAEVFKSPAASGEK

Compound | current activation (TRPV1 ion channel; 7.9 fM to 15.8 pM, after 100 nM capsaicin, rate of activation concentration dependent) | reversibility of current response by washout (TRPV1 ion channel; RTX 7.9 fM) | concentrations activating TRPV1 ion channels relative to capsaicin (TRPV1 ion channel; RTX at fM to pM concentrations, FIG. 2) | concentrations that fully activate TRPV1 receptor (TRPV1 receptor) | dose administered without observable side effects [1] | effect on thermal hyperalgesia [2] | pain sensitivity [3] | reversibility of current response by washout (TRPV1 ion channel; capsaicin 100 nM)
C=C(C)[C@]12C[C@@H](C)[C@@]34O[C@](Cc5ccccc5)(O[C@@H]1[C@@H]3C=C(COC(=O)Cc1ccc(O)c(OC)c1)C[C@]1(O)C(=O)C(C)=C[C@@H]41)O2 [RTX, Resiniferatoxin] | activated currents maximally | could not be reversed by washout | five to nine orders of magnitude lower than capsaicin | femtomolar-picomolar range | ≤ 0.2 mg/kg | reversed thermal hyperalgesia | complete loss of pain sensitivity | –
COc1cc(CNC(=O)CCCC/C=C/C(C)C)ccc1O [capsaicin] | – | – | – | – | – | – | – | could be reversed by washout

From patent US11707437B2, “Topical formulations with resiniferatoxin nanoparticles and methods” (priority 2019, dated 2023)
